Data as given in US10987350B2, “Method for treating post-traumatic stress disorder” (priority 2017, dated 2021).

Experiments:
liver = settings: compared with naltrexone; cited from earlier work
[1] = test system: patient diagnosed with post-traumatic stress disorder (PTSD); assay: higher dose titration schedule of nalmefene in patients diagnosed with PTSD; type: in vivo, human
Experimental: One object of the subject invention is to provide improved benefit to patients diagnosed with PTSD, by employing a higher dose titration schedule for the administration of nalmefene. In accordance with the nalmefene dosing titration schedule of the subject invention, nalmefene is administered at a higher initial dose than the dosing schedule published in the pilot study, and administering nalmefene at the same, higher dose increments at regular intervals described above. Specifically, the subject invention comprises administering nalmefene orally to a PTSD patient at an initial dose of 100 milligrams per day, preferably using 50 milligram doses, twice a day, with increases every 3-4 days of 100 mg per day (50 milligrams twice a day), not to exceed 1000 mg per day (500 mg twice a day).
The subject invention comprises administering, on a dosing titration schedule, nalmefene, to a patient diagnosed with post-traumatic stress disorder (PTSD), using • a starting dose of 100 mg per day, preferably in divided doses of 50 mg twice per day; and • increasing the dose by 100-150 mg per day, every 2-5 days, up to a maximum daily dose of 1000 mg, per day.
Each increase is preferably 100 mg per day, at a divided dose of 50 mg twice per day.
An optimum dose of nalmefene, wherein PTSD symptoms are reduced or reversed, can be achieved within 2-3 weeks for individuals diagnosed with PTSD. The reduced or reversed. PTSD symptoms are based on both clinical observation of the patient and on reporting of reduced or reversed symptoms by the patient.

[2] = compared with naltrexone; cited from earlier work
[3] = test system: respiratory depression produced by opiate overdose; settings: cited from earlier work
[4] = test system: combat veterans diagnosed with post-traumatic stress disorder (PTSD); settings: 18 combat veterans with PTSD; 1 mg twice a day up to 200 mg twice a day; cited from earlier work
[5] = dosing administration schedule of the invention

What does the source list for C=C1CC[C@@]2(O)[C@H]3Cc4ccc(O)c5c4[C@@]2(CCN3CC2CC2)[C@H]1O5 [nalmefene]?
dose-dependent liver toxicity (liver): no observed dose-dependent liver toxicity; adverse reaction with large dose increments ([1]; dose increments significantly greater than 50 milligrams twice a day): frequent and intense mood swings; occurrence of fluctuating mood states (anxiety, hostility and rage, depression, paranoia) with dose increases [1, 5]: successful in avoiding the occurrence of fluctuating mood states; time to stabilization of mental state of the PTSD patient [1, 5]: stabilized in a much briefer period of time; emergence of opiate withdrawal symptoms ([1]; higher dose of at least 50 mgs twice a day): unexpectedly bypassed the emergence of opiate withdrawal symptoms; time to achieve optimum dose, wherein PTSD symptoms are reduced or reversed ([1]; higher dose titration schedule, clinical observation and patient reporting): 2-3 weeks; half-life relative to naltrexone [2]: longer half-life; additional benefit in opiate overdose at higher doses ([3]; intravenous doses greater than 1.5 mg): do not appear to give any greater benefit; counteracting respiratory depression produced by opiate overdose ([3]; intravenous doses): effective; core symptoms of PTSD (nightmares, intrusive thoughts, flashbacks, avoidance, dissociative amnesia, mistrust, hyper arousal) [4]: significantly improve all core symptoms of PTSD; symptom of emotional numbness [4]: significantly reduce, and in some cases remit
